In US20050037436A1, “Test systems and the use thereof for identifying and characterizing compounds” (priority 2000, published 2005):

Assays:
HC110-R [1] = assay type: cell-based, Haemonchus contortus; conditions: 4 ng/ml or 400 ng/ml, 90 minutes preincubation, removed before α-LTX
Description: The intracellular free Ca^2+ concentration [Ca^2+]i was measured in COS-7 and HEK293 cells transiently transfected with the HC110-R-EGFP or β2-AR-EGFP construct using the calcium imaging method (see also FIG. 11). In each case 2×10^5 COS-7 and HEK293 cells were applied to a 42 mm cover glass coated with 1% gelatine in 55 mm tissue culture dishes with 5 ml of DMEM medium (with 10% FCS and pen/strep). The transfection took place with the aid of the non-liposomal transfection reagent FuGENE 6 (Roche Molecular Biochemicals, Mannheim). […] Constructs of the HC110-R full-length clone with a GFP tag fused in the correct reading frame, and the complete cDNA of the β2-adrenergic receptor which had likewise been provided with a GFP tag at the 3′ end, were transfected.
After the incubation, the cells loaded with Fura-2/AM were examined under an inverted microscope (Zeiss, Axiovert, Germany) and, in parallel with this, in a digital imaging fluorescence microscope (PTI) and differentiated into transfected and untransfected cells at a wavelength of 440 and 490 nm respectively. On average, 5-7 transfected and non transfected cells were selected by fixing an ROI (region of interest). The extinction was measured at 340 nm (calcium-bound Fura-2/AM) and 380 nm (free Fura-2/AM), and the emission was measured at 510 nm. Evaluation took place using the Image Master 1.x software by forming the quotient of 340:510 nm, 380:510 nm and the ratio of 340/380:510 nm (background corrected images) as a function of the agent added.
Agents were always added 6 min after starting the measurement by removing an appropriate volume of Na^+ HBS buffer and pipetting the agent directly into the sample vessel for a further 30 to 50 min. The total volume in the sample vessel was constant at 1.5 ml throughout the experiment. […] Addition of CdCl2 and nifedipine took place immediately at the start of the experiment and before addition of α-LTX, and EGTA was added both at the start of the experiment and 4 min after the addition of α-LTX. Dissolved α-LTX was present in a concentration of 300 nM in 50 mM tris-HCl, pH 8.0; BAY 44-4400 was initially dissolved in pure DMSO (stock solutions between 0.004 and 10 μg/ml). The stock solutions were adjusted to the required concentration in the Na^+ HBS buffer. The maximum amount of the active substance BAY 44-4400 which could be dissolved at a final concentration of 0.1% DMSO was found by setting up serial dilutions in Na^+ HBS.
The data were analyzed using the Excel 98 table calculation programme. The results are derived from at least 2-4 reproduced experiments on in each case 4-8 transfected and un-transfected cells.

HC110-R [2] = assay: PF1022A binding to HC110-R-transfected HEK-293 cells by FACScan; parameters: species or system Haemonchus contortus; conditions: for Phycoerythrin fluorescence: 0.5 μg/ml PF1022A-biotin + streptavidin-phycoerythrin
Description: (§1) For this purpose, HEK-293 cells were transiently transfected with HC110-R-GFP or GFP-HC110-R or else transiently cotransfected with HC110-R-Myc/His and GFP. […] 24 h after the transfection, the cells were incubated with biotinylated PF1022A, and PF1022A-bound cells were detected using streptavidin-phycoerythrin and were finally fixed. A negative control of cells transfected with HC110-R-GFP was incubated only with streptavidin-phycoerythrin without PF1022A-biotin.
(§2) Phycoerythrin has—like TRITC—an absorption spectrum which overlaps with EGFP, while the emission spectra are adequately separated, so that both fluorochromes can be excited at only one wavelength. Cell detritus was excluded from the measurement of the fluorescence intensity by setting a ‘gate’ on the main cell population. For quantitative evaluation, the limits were fixed for negative, unstained and positive, GFP-fluorescent cells on the basis of the untransfected and GFP-transfected cells.
(§3) In each case 5×10^5 HEK-293 cells which were not transfected, were transiently transfected with GFP, HC110-R-GFP, GFP-HC110-R, β2-R-GFP and M1-R-GFP, and transiently cotransfected with HC110-R-Myc/His and GFP were incubated, 24 h after the transfection, with 0.5 μg/ml PF1022A-biotin and streptavidin-phycoerythrin (1:300) and then fixed. As negative controls, HC110-R-GFP-transfected cells were incubated only with streptavidin-phycoerythrin, without PF1022A-biotin. […] The standard deviation is derived by determining the means of triplicate mixtures.

β2-R-GFP = target: T1, β2-R-GFP (Mus musculus, UniProt P18762); assay: PF1022A binding by FACScan, β2-R-GFP control cells
T1 construct: was fused with a C-terminal EGFP tag by amplifying the full-length cDNA with the P117 mouse 2AR XhoI 5′ primer; expressed in transfected cells; host or cells: HEK-293, transient (pEGFP-N3)
Description: as §1, §2
(§4) In each case 5×10^5 HEK-293 cells which were not transfected, were transiently transfected with GFP, HC110-R-GFP, GFP-HC110-R, β2-R-GFP and M1-R-GFP, and transiently cotransfected with HC110-R-Myc/His and GFP were incubated, 24 h after the transfection, with 0.5 μg/ml PF1022A-biotin and streptavidin-phycoerythrin (1:300) and then fixed. […]

M1-R-GFP = target: T2, M1-R-GFP (Homo sapiens, UniProt P11229); assay: PF1022A binding by FACScan, M1-R-GFP control cells
T2 construct: The full-length cDNA of a human muscarinic receptor 1 (huM1Rez); expressed in transfected cells; host or cells: HEK-293, transient (pEGFP-N3)
T2 sequence (P11229 1-460): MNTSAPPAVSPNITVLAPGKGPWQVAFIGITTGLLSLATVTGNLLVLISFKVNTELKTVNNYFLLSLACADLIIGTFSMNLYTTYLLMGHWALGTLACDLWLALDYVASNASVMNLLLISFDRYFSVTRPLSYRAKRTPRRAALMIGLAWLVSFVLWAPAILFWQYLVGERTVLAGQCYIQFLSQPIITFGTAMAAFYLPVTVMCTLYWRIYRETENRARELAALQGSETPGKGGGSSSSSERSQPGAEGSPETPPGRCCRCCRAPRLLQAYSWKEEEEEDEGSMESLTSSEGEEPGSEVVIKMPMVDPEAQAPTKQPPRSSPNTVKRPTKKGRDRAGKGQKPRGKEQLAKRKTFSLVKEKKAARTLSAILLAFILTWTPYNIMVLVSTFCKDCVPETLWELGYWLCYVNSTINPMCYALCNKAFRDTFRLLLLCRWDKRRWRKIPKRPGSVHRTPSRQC
Description: as §1, §2, §4

HEK-293 cells = assay: PF1022A binding by FACScan, untransfected and GFP-transfected control cells; parameters: species or system human; conditions: for Phycoerythrin fluorescence: 0.5 μg/ml PF1022A-biotin + streptavidin-phycoerythrin
Description: as §1, §2, §3

HC110-R [3] = assay type: binding, Haemonchus contortus; conditions: renatured; fragment expressed in E. coli
Text: Since denaturation of proteins is necessary for carrying out SDS-PAGE, there may be destruction of conformation-dependent epitopes. Antibodies or proteins which specifically recognize such epitopes may therefore no longer bind. […] BAY44-4400 differs from PF1022A by 2 morpholine residues which are covalently bonded to the phenyl rings of the two D-phenyllactyl radicals of PF1022A. […] For this purpose, total protein from untransfected HEK-293 cells and HEK-293 cells which transiently express HC110-R-Myc/His, and from the 54 kDa N terminus and the 21 kDa C terminus of HC110-R which were expressed in E. coli, were fractionated by SDS-PAGE, renatured and blotted in the usual way. […] In addition, a partially renatured SDS polyacrylamide gel with the protein fractions of untransfected HEK-293 cells, HEK-293 cells transiently transfected with HC110-R-Myc/His, and the N terminus of HC110-R expressed in E. coli and total protein from H. contortus was blotted, incubated with PF1022A-biotin and detected using streptavidin HRP.

HC110-R [4] = assay type: binding, Haemonchus contortus; conditions: mixture of N terminus and C terminus expressed in E. coli
Description: In a control mixture with 4 mg of Dynal beads, TST buffer was added in place of PF1022A. Excess PF1022A-biotin was removed by magnetic separation before a mixture of the HC110-R terminus and C terminus expressed in E. coli and previously purified by affinity chromatography was added. After renewed magnetic separation to remove unbound HC110-R fragments, one aliquot derived from 2 mg, and one from 4 mg, of Dynal beads was fractionated by SDS-PAGE and blotted. Detection of the precipitate took place via the N-terminally fused His tag with a mouse anti-His IgG and a rabbit anti-mouse IgG HRP antibody. […] Nonspecific binding of the N or C terminus of HC110-R to the streptavidin-coupled beads was precluded by adding no biotinylated PF1022A to a reaction mixture.

nematodes = conditions: depending on the particular species (Terada, 1992); cited from earlier work

T1 sequence (P18762 whole entry, the tested form may be a part): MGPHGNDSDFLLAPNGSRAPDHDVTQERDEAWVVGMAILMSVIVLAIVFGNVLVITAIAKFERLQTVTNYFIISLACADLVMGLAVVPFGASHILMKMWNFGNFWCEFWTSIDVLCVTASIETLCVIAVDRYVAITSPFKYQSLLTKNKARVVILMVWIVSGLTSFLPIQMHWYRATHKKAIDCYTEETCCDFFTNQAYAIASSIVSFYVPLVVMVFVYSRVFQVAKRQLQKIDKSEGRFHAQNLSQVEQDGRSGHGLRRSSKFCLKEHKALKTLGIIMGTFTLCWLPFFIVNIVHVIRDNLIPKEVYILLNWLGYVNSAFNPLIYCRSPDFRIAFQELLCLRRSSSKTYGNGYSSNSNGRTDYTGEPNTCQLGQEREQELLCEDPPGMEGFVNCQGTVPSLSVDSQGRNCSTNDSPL

CC(C)C[C@H]1C(=O)O[C@H](Cc2ccccc2)C(=O)N(C)[C@@H](CC(C)C)C(=O)O[C@H](C)C(=O)N(C)[C@@H](CC(C)C)C(=O)O[C@H](Cc2ccccc2)C(=O)N(C)[C@@H](CC(C)C)C(=O)O[C@H](C)C(=O)N1C [PF1022A, cyclo(-D-Lac-L-MeLeu-D-PhLac-L-MeLeu-)2]
change in response to α-LTX after preincubation (HC110-R [1]): no significant change in their response to α-LTX
percentage of green-fluorescent cells that bind PF1022A (HC110-R [2]; cells cotransfected with HC110-R-Myc/His and GFP): 44.5%
percentage of green-fluorescent cells that bind PF1022A (HC110-R [2]; cells expressing GFP-HC110-R): 26.8%
percentage of green-fluorescent cells that bind PF1022A (HC110-R [2]; cells expressing HC110-R-GFP): 41.2%
Phycoerythrin fluorescence (HC110-R [2]; plasmid GFP-HC110-R): 2.5 ± 0.3%
Phycoerythrin fluorescence (HC110-R [2]; plasmid HC110-R-GFP, nonspecific staining subtracted): 4.5 ± 0.4%
Phycoerythrin fluorescence (HC110-R [2]; plasmids HC110-R-Myc/His + GFP): 10.3 ± 0.7%
Phycoerythrin fluorescence (β2-R-GFP): 0.8 ± 0.1%
percentage of green-fluorescent cells that bind PF1022A (β2-R-GFP; cells expressing 2-R-GFP): 9.9%
Phycoerythrin fluorescence (M1-R-GFP): 1.6 ± 0.1%
percentage of green-fluorescent cells that bind PF1022A (M1-R-GFP; cells expressing M1-R-GFP): 19.2%
percentage of green-fluorescent cells that bind PF1022A (HEK-293 cells; cells expressing GFP): 7.5%
Phycoerythrin fluorescence (HEK-293 cells; plasmid GFP): 1.3 ± 0.4%
Phycoerythrin fluorescence (HEK-293 cells; untransfected): 0 ± 0%
binding to 21 kDa C terminus of HC110-R (HC110-R [3]): no specific PF1022A binding
precipitation of HC110-R fragments (HC110-R [4]): Only the N-terminal 54 kDa region of HC110-R is precipitated
concentrations at which effect on nematodes is exerted (nematodes): 100 to 800 ng/mL
